Assays:
guineagrass = assay: Test E preemergence; assay type: in vivo, Panicum maximum; conditions: 21 days, scale 0 to 100
From the text: (§1) Seeds of plant species selected from bermudagrass (Cynodon dactylon), Surinam grass (Brachiaria decumbens), crabgrass, large (large crabgrass, Digitaria sanguinalis), crabgrass, naked (naked crabgrass, Digitaria nuda), foxtail, green (green foxtail, Setaria viridis), johnsongrass (Sorghum halepense), kochia (Kochia scoparia), morningglory (pitted morningglory, Ipomoea lacunosa), nutsedge, purple (purple nutsedge, Cyperus rotundus), ragweed (common ragweed, Ambrosia elation), mustard, black (black mustard, Brassica nigra), guineagrass (Panicum maximum), dallisgrass (Paspalum dilatatum), barnyardgrass (Echinochloa crus-galli), sandbur (southern sandbur, Cenchrus echinatus), sowthistle (common sowthistle, Sonchus oleraceous), ryegrass, Italian (Italian ryegrass, Lolium multiflorum), signalgrass (broadleaf signalgrass, Brachiaria platyphylla), dayflower, VA (Virginia (VA) dayflower, Commelina virginica), bluegrass (annual bluegrass, Poa annua), quackgrass (Elytrigia repens), mallow (common mallow, Malva sylvestris), buckwheat, wild (wild buckwheat, Polygonum convolvulus), leafy spurge (Euphorbia esula), common chickweed (Stellaria media), wild poinsettia (Euphorbia heterophylla), pigweed, palmer (palmer pigweed, Amaranthus palmeri), and pigweed (redroot pigweed, Amaranthus retroflexus) were planted into a blend of loam soil and sand and treated preemergence with test chemicals formulated in a non-phytotoxic solvent mixture which included a surfactant.
(§2) Treated plants and controls were maintained in a greenhouse for 21 days, after which time all species were compared to controls and visually evaluated. Plant response ratings, summarized in Table E, are based on a scale of 0 to 100 where 0 is no effect and 100 is complete control. A dash (-) response means no test result.

soybean = assay: Test F postemergence; assay type: in vivo, Glycine max; conditions: scale 0 to 100
From the text: (§3) Seeds of plant species selected from corn (Zea mays), soybean (Glycine max), velvetleaf (Abutilon theophrasti), lambsquarters (Chenopodium album), wild poinsettia (Euphorbia heterophylla), pigweed, palmer (palmer pigweed, Amaranthus palmeri), common waterhemp (Amaranthus rudis), surinam grass (Brachiaria decumbens), large crabgrass (Digitaria sanguinalis), crabgrass, Brazil (Brazilian crabgrass, Digitaria horizontalis), fall panicum (Panicum dichotomiflorum), giant foxtail (Setaria faberii), green foxtail (Setaria viridis), goosegrass (Eleusine indica), johnsongrass (Sorghum halepense), common ragweed (Ambrosia elation), barnyardgrass (Echinochloa crus-galli), southern sandbur (Cenchrus echinatus), arrowleaf sida (Sida rhombifolia), Italian ryegrass (Lolium multiflorum), dayflower, VA (Virginia (VA) dayflower, Commelina virginica), field bindweed (Convolvulus arvensis), cocklebur (common cocklebur, Xanthium strumarium), morningglory (Ipomoea coccinea), nightshade (eastern black nightshade, Solanum ptycanthum), kochia (Kochia scoparia), yellow nutsedge (Cyperus esculentus), and hairy beggarticks (Bidens pilosa), were planted into a silt loam soil and treated preemergence with test chemicals formulated in a non-phytotoxic solvent mixture which included a surfactant.
(§4) At the same time, plants from these crop and weed species and also horseweed (Canada horseweed, Conyza canadensis), smartweed (ladysthumb smartweed, Polygonum persicaria), waterhemp_RES1, (ALS & Triazine resistant common waterhemp, Amaranthus rudis), and waterhemp_RES2, (ALS & HPPD resistant common waterhemp, Amaranthus rudis) were treated with postemergence applications of test chemicals formulated in the same manner. Plants ranged in height from 2 to 18 cm for postemergence treatments (1- to 4-leaf stage). Treated plants and controls were maintained in a greenhouse for 14 to 21 days, after which time all species were compared to controls and visually evaluated. Plant response ratings, summarized in Table F, are based on a scale of 0 to 100 where 0 is no effect and 100 is complete control. A dash (-) response means no test result.

dallisgrass = assay: Test E preemergence; assay type: in vivo, Paspalum dilatatum; conditions: 21 days, scale 0 to 100
From the text: as §1, §2

arrowleaf sida = assay: Test F postemergence; assay type: in vivo, Sida rhombifolia; conditions: scale 0 to 100
From the text: as §3, §4

kochia = assay: Test F postemergence; assay type: in vivo, Kochia scoparia; conditions: scale 0 to 100
From the text: as §3, §4

sowthistle = assay: Test E preemergence; assay type: in vivo, Sonchus oleraceous; conditions: 21 days, scale 0 to 100
From the text: as §1, §2

leafy spurge = assay: Test E preemergence; assay type: in vivo, Euphorbia esula; conditions: 21 days, scale 0 to 100
From the text: as §1, §2

Row | SMILES | Plant response rating, Guineagrass (guineagrass; 16 g ai/ha) | Plant response rating, Guineagrass (guineagrass; 31 g ai/ha) | Plant response rating, Guineagrass (guineagrass; 62 g ai/ha) | Plant response rating, Guineagrass (guineagrass; 125 g ai/ha) | Plant response rating, Guineagrass (guineagrass; 250 g ai/ha) | Plant response rating, Soybean (soybean; Postemergence, 31 g ai/ha) | Plant response rating, Soybean (soybean; Postemergence, 250 g ai/ha) | Plant response rating, Soybean (soybean; postemergence, 62 g ai/ha) | Plant response rating, Soybean (soybean; postemergence, 500 g ai/ha) | Plant response rating, Dallisgrass (dallisgrass; 16 g ai/ha) | Plant response rating, Dallisgrass (dallisgrass; 31 g ai/ha) | Plant response rating, Dallisgrass (dallisgrass; 62 g ai/ha) | Plant response rating, Dallisgrass (dallisgrass; 125 g ai/ha) | Plant response rating, Dallisgrass (dallisgrass; 250 g ai/ha) | Plant response rating, Arrowleaf Sida (arrowleaf sida; Postemergence, 31 g ai/ha) | Plant response rating, Arrowleaf Sida (arrowleaf sida; Postemergence, 125 g ai/ha) | Plant response rating, Arrowleaf Sida (arrowleaf sida; Postemergence, 250 g ai/ha) | Plant response rating, Arrowleaf Sida (arrowleaf sida; postemergence, 62 g ai/ha) | Plant response rating, Arrowleaf Sida (arrowleaf sida; postemergence, 500 g ai/ha) | Plant response rating, Kochia (kochia; Postemergence, 31 g ai/ha) | also measured
1 | CCc1cc(C(=O)NCC(F)(F)F)nn1Cc1ccnc(C(F)(F)F)c1 [Compound 78, 5-ethyl-N-(2,2,2-trifluoroethyl)-1-[[(2-trifluoromethyl)-4-pyridinyl]methyl]-1H-pyrazole-3-carboxamide] | 90 | 100 | 100 | 100 | 100 | 75 | 95 | 80 | 100 | 90 | 100 | 100 | 100 | 100 | 50 | 75 | 80 | 60 | 95 | 65 | Plant response rating, Kochia (kochia; Postemergence, 125 g ai/ha): 90; Plant response rating, Kochia (kochia; Postemergence, 250 g ai/ha): 90; Plant response rating, Kochia (kochia; postemergence, 62 g ai/ha): 90; Plant response rating, Kochia (kochia; postemergence, 500 g ai/ha): 95; Plant response rating, Sowthistle (sowthistle; 62 g ai/ha): 100; Plant response rating, Sowthistle (sowthistle; 125 g ai/ha): 100; Plant response rating, Sowthistle (sowthistle; 250 g ai/ha): 100; Plant response rating, Leafy Spurge (leafy spurge; 16 g ai/ha): 80; Plant response rating, Leafy Spurge (leafy spurge; 31 g ai/ha): 100; Plant response rating, Leafy Spurge (leafy spurge; 62 g ai/ha): 100; Plant response rating, Leafy Spurge (leafy spurge; 125 g ai/ha): 100; Plant response rating, Leafy Spurge (leafy spurge; 250 g ai/ha): 100
2 | CCCc1cc(C(=O)NCC(F)(F)F)nn1Cc1ccnc(C(F)(F)F)c1 [Compound 105] | 75 | 90 | 100 | 100 | 100 | 70 | 95 | 80 | 100 | 20 | 95 | 100 | 100 | 100 | 40 | 60 | 80 | 50 | 90 | 60 | Plant response rating, Soybean (soybean; Postemergence, 125 g ai/ha): 90; Plant response rating, Kochia (kochia; Postemergence, 125 g ai/ha): 90; Plant response rating, Kochia (kochia; Postemergence, 250 g ai/ha): 95; Plant response rating, Kochia (kochia; postemergence, 62 g ai/ha): 90; Plant response rating, Kochia (kochia; postemergence, 500 g ai/ha): 95; Plant response rating, Sowthistle (sowthistle; 16 g ai/ha): 100; Plant response rating, Sowthistle (sowthistle; 31 g ai/ha): 100; Plant response rating, Sowthistle (sowthistle; 62 g ai/ha): 100; Plant response rating, Sowthistle (sowthistle; 125 g ai/ha): 100; Plant response rating, Sowthistle (sowthistle; 250 g ai/ha): 100; Plant response rating, Leafy Spurge (leafy spurge; 16 g ai/ha): 100; Plant response rating, Leafy Spurge (leafy spurge; 31 g ai/ha): 100; Plant response rating, Leafy Spurge (leafy spurge; 62 g ai/ha): 100; Plant response rating, Leafy Spurge (leafy spurge; 125 g ai/ha): 100; Plant response rating, Leafy Spurge (leafy spurge; 250 g ai/ha): 100
